Laboratory results taken from patent US20040138241A1, “Novel use of arylethenesulfonamide derivative” (priority 2001, published 2004).
Where a name gives a salt, the structure may show the parent alone. Read-outs that look alike come from different tables or passages of the source.

Experiments:
[1] = tested on: urethral pressure in anesthetized dogs
From the text: Male beagle dogs (body weight: from 8 to 13 kg) were subjected to artificial ventilation under the anesthesia with pentobarbital, a catheter was inserted into a left femoral artery for measurement of blood pressure and heart rate and a left femoral vein for administration of drug. A catheter for measurement of urethral pressure (from 8 to 10Fr, 2 holes, manufactured by Create Medic Co., Ltd.) was inserted from an external urethral meatus toward urinary bladder. An automatic syringe pump was connected with one end of the catheter, and a pressure transducer was connected with the other end thereof. […] At the same time, by drawing out the catheter from the urinary bladder into the external urethral meatus at a rate of 25 mm/min by an automatic drawing unit, the pressure was measured and recorded throughout urethra as a urethral pressure profile (UPP) as shown in FIG. 6.
In the blood pressure-response by ET-1 since the pressure increased after a transient reduction of pressure, measurement of the urethral pressure was started about 3 minutes after the administration. On the other hand, as phenylephrine hydrochloride caused an increase of pressure immediately after the administration, measurement of the urethral pressure was started immediately after the administration.
Three minutes after the administration, ET-1 (1 μg/kg) was again intravenously administered, and an action against the urethral pressure was studied similarly to the time of single administration.

[2] = tested on: urethral pressure in anesthetized dogs; assay: ET-1 induced increase of urethral pressure in the presence of α1 receptor blocker in anesthetized dog; type: in vivo; conditions: tamsulosin hydrochloride 10 μg/kg i.v.
Protocol: A urethral pressure profile (UPP) was recorded according to the same operation method as in Test Example 3 .
Thirty minutes thereafter, the same amount of tamsulosin hydrochloride (10 μg/kg i.v.) was again intravenously administered.

[3] = tested on: prostatic urethral pressure in anesthetized dogs; type: in vivo, dog; conditions: for EC50 value of increase of PUP, reduced into molar concentration: i.a. local administration, mean±standard error
Protocol: After waiting for stabilization of hemodynamics following the operation, the balloon was fixed to the prostatic urethra and expanded, and a prostatic urethral pressure (PUP) was measured from a change in pressure within the balloon.
ET-1 (from 0.006 to 0.8 μg/kg i.a., molar concentration: from 0.0025 to 0.321 nmol/kg i.a.) and phenylephrine hydrochloride (from 0.06 to 8 μg/kg i.a.; molar concentration: from 0.307 to 39.3 nmol/kg i.a.) were locally administered, thereby comparing the dose-response curve of an increasing action of PUP by the drugs.
In the experiments, dogs in which a degree of increase of PUP was observed 40 cmH2O or more in the pre-contraction with phenylephrine hydrochloride (8 μg/kg i.a.) were used.

[4] = tested on: isolated rabbit prostate, urethra and bladder base preparations; assay: Concentration-response of agonists in isolated rabbit lower urinary tract preparations; type: biochemical; conditions: cumulative addition
Protocol: Male Japanese white rabbits (from 3 to 5 kg, available from Kitayama Labes Co., Ltd.) were provided for experiments. Prostate, urethra and bladder were isolated from the rabbit to prepare ring preparations of smooth muscle. With respect to the bladder, a dorsal region of the bladder base was used as preparation. Each of the preparations was suspended in an organ bath filled with a Krebs-Henselit solution at 37 ° C., into which was then aerated a 95% O2-5% CO2 gas. A resting tension was subjected as 1g, and a tension change was isometrically measured. Incidentally, the organ bath for preventing adsorption of ET-1 was previously subjected to silicon treatment. After elapse of an equilibrium period for 60 minutes, the preparation was contracted twice by 10 μM phenylephrine hydrochloride to be stabilized the responsibility, and a main experiment was started.
ET-1 (from 0.1 to 1,000 nM), phenylephrine hydrochloride (from 0.01 to 100 μM), S6c (from 1 to 1,000 nM), or acetylcholine (from 0.01 to 1,000 μM) was cumulatively added to the organ bath to obtain a concentration-response curve. […] The contraction response to each agonists was expressed while defining the contraction by phenylephrine hydrochloride (10 μM) as obtained immediately therebefore as 100%.

[5] = ET-1 1 μg/kg i.v., phenylephrine hydrochloride 30 μg/kg i.v.

CC[C@H](C)[C@H](NC(=O)[C@H](CC(=O)O)NC(=O)[C@H](CC(C)C)NC(=O)[C@H](Cc1cnc[nH]1)NC(=O)[C@@H]1CSSC[C@H](N)C(=O)N[C@@H](CO)C(=O)N[C@H]2CSSC[C@H](NC(=O)[C@H](CCC(=O)O)NC(=O)[C@H](CCCCN)NC(=O)[C@H](CC(=O)O)NC(=O)[C@H](CCSC)NC(=O)[C@H](CC(C)C)NC(=O)[C@H](CO)NC(=O)[C@H](CO)NC2=O)C(=O)N[C@@H](C(C)C)C(=O)N[C@@H](Cc2ccc(O)cc2)C(=O)N[C@@H](Cc2ccccc2)C(=O)N1)C(=O)N[C@H](C(=O)N[C@@H](Cc1c[nH]c2ccccc12)C(=O)O)[C@@H](C)CC [ET-1]
action on urethral pressure (UPP) [1, 5]: remarkable increase of the pressure throughout urethra other than prostate in addition to an increase of the urethral pressure of prostate | action on mean blood pressure ([1]; dog, in vivo, iv): without substantially affecting the mean blood pressure | action on urethral pressure in the presence of tamsulosin hydrochloride ([2]; ET-1 1 μg/kg i.v.): increased the urethral pressure of the whole of lower urinary tract including prostate | duration of increase response of PUP relative to phenylephrine hydrochloride ([3]; ET-1 0.4 μg/kg i.a. vs phenylephrine hydrochloride 2 μg/kg i.a., typical example): about 3 times | concentration for increasing action of prostatic urethral pressure, times lower than phenylephrine hydrochloride ([3]; anesthetized dog, i.a.): about 100 times | maximum response of PUP, of that of phenylephrine hydrochloride ([3]; anesthetized dog, i.a.): 43.9 ±5.2% | EC50 value of increase of PUP, reduced into molar concentration ([3]; anesthetized dog): 0.08 ± 0.03 nmol/kg

CNC[C@H](O)c1cccc(O)c1 [phenylephrine hydrochloride]
action on mean blood pressure [1, 5]: increase of mean blood pressure | action on urethral pressure (UPP) [1, 5]: remarkable increase of the urethral pressure of prostate | EC50 value of increase of PUP, reduced into molar concentration ([3]; anesthetized dog): 7.47 ± 2.82 nmol/kg | degree of increase of PUP relative to ET-1 ([3]; phenylephrine hydrochloride 2 μg/kg i.a. vs ET-1 0.4 μg/kg i.a., typical example): higher about twice

CCOc1ccccc1OCCN[C@H](C)Cc1ccc(OC)c(S(N)(=O)=O)c1 [tamsulosin hydrochloride]
action on prostatic urethral pressure ([2]; anesthetized dogs): reduced the prostatic urethral pressure

sarafotoxin S6c [Compound S6c]
contraction of isolated preparations (in words) [4]: not substantially observed
